{"source": "the NIST ThermoML archive (doi:10.1016/j.fluid.2012.10.024)", "assay": "mn = molality of the nth substance listed, in mol/kg", "conditions": "101 kPa, Liquid, Vibrating tube method", "note": "Numbers after ± are expanded uncertainties.", "data": [{"smiles": "OCC1CCCCN1", "note": "(centres undefined) [2-(hydroxymethyl)piperidine] + O", "values": [{"measurement": "mass density", "setting": "293.15 K, m1 = 0.0476", "result": "998.6 ± 0.2", "unit": "kg/m3"}, {"measurement": "mass density", "setting": "293.15 K, m1 = 0.0676", "result": "998.75 ± 0.2", "unit": "kg/m3"}, {"measurement": "mass density", "setting": "293.15 K, m1 = 0.0864", "result": "998.87 ± 0.2", "unit": "kg/m3"}, {"measurement": "mass density", "setting": "293.15 K, m1 = 0.1214", "result": "999.15 ± 0.2", "unit": "kg/m3"}, {"measurement": "mass density", "setting": "293.15 K, m1 = 0.1524", "result": "999.37 ± 0.2", "unit": "kg/m3"}, {"measurement": "mass density", "setting": "293.15 K, m1 = 0.1766", "result": "999.52 ± 0.2", "unit": "kg/m3"}, {"measurement": "mass density", "setting": "293.15 K, m1 = 0.2009", "result": "999.71 ± 0.2", "unit": "kg/m3"}, {"measurement": "mass density", "setting": "293.15 K, m1 = 0.2264", "result": "999.87 ± 0.2", "unit": "kg/m3"}, {"measurement": "mass density", "setting": "293.15 K, m1 = 0.2609", "result": "1000.11 ± 0.2", "unit": "kg/m3"}, {"measurement": "mass density", "setting": "298.15 K, m1 = 0.0476", "result": "997.46 ± 0.2", "unit": "kg/m3"}, {"measurement": "mass density", "setting": "298.15 K, m1 = 0.0676", "result": "997.6 ± 0.2", "unit": "kg/m3"}, {"measurement": "mass density", "setting": "298.15 K, m1 = 0.0864", "result": "997.72 ± 0.2", "unit": "kg/m3"}, {"measurement": "mass density", "setting": "298.15 K, m1 = 0.1214", "result": "997.99 ± 0.2", "unit": "kg/m3"}, {"measurement": "mass density", "setting": "298.15 K, m1 = 0.1524", "result": "998.2 ± 0.2", "unit": "kg/m3"}, {"measurement": "mass density", "setting": "298.15 K, m1 = 0.1766", "result": "998.34 ± 0.2", "unit": "kg/m3"}, {"measurement": "mass density", "setting": "298.15 K, m1 = 0.2009", "result": "998.53 ± 0.2", "unit": "kg/m3"}, {"measurement": "mass density", "setting": "298.15 K, m1 = 0.2264", "result": "998.68 ± 0.2", "unit": "kg/m3"}, {"measurement": "mass density", "setting": "298.15 K, m1 = 0.2609", "result": "998.91 ± 0.2", "unit": "kg/m3"}, {"measurement": "mass density", "setting": "303.15 K, m1 = 0.0476", "result": "996.06 ± 0.2", "unit": "kg/m3"}, {"measurement": "mass density", "setting": "303.15 K, m1 = 0.0676", "result": "996.19 ± 0.2", "unit": "kg/m3"}, {"measurement": "mass density", "setting": "303.15 K, m1 = 0.0864", "result": "996.31 ± 0.2", "unit": "kg/m3"}, {"measurement": "mass density", "setting": "303.15 K, m1 = 0.1214", "result": "996.57 ± 0.2", "unit": "kg/m3"}, {"measurement": "mass density", "setting": "303.15 K, m1 = 0.1524", "result": "996.77 ± 0.2", "unit": "kg/m3"}, {"measurement": "mass density", "setting": "303.15 K, m1 = 0.1766", "result": "996.91 ± 0.2", "unit": "kg/m3"}, {"measurement": "mass density", "setting": "303.15 K, m1 = 0.2009", "result": "997.09 ± 0.2", "unit": "kg/m3"}, {"measurement": "mass density", "setting": "303.15 K, m1 = 0.2264", "result": "997.24 ± 0.2", "unit": "kg/m3"}, {"measurement": "mass density", "setting": "303.15 K, m1 = 0.2609", "result": "997.46 ± 0.2", "unit": "kg/m3"}, {"measurement": "mass density", "setting": "308.15 K, m1 = 0.0476", "result": "994.44 ± 0.2", "unit": "kg/m3"}, {"measurement": "mass density", "setting": "308.15 K, m1 = 0.0676", "result": "994.56 ± 0.2", "unit": "kg/m3"}, {"measurement": "mass density", "setting": "308.15 K, m1 = 0.0864", "result": "994.68 ± 0.2", "unit": "kg/m3"}, {"measurement": "mass density", "setting": "308.15 K, m1 = 0.1214", "result": "994.93 ± 0.2", "unit": "kg/m3"}, {"measurement": "mass density", "setting": "308.15 K, m1 = 0.1524", "result": "995.13 ± 0.2", "unit": "kg/m3"}, {"measurement": "mass density", "setting": "308.15 K, m1 = 0.1766", "result": "995.26 ± 0.2", "unit": "kg/m3"}, {"measurement": "mass density", "setting": "308.15 K, m1 = 0.2009", "result": "995.43 ± 0.2", "unit": "kg/m3"}, {"measurement": "mass density", "setting": "308.15 K, m1 = 0.2264", "result": "995.58 ± 0.2", "unit": "kg/m3"}, {"measurement": "mass density", "setting": "308.15 K, m1 = 0.2609", "result": "995.79 ± 0.2", "unit": "kg/m3"}, {"measurement": "mass density", "setting": "313.15 K, m1 = 0.0476", "result": "992.59 ± 0.2", "unit": "kg/m3"}, {"measurement": "mass density", "setting": "313.15 K, m1 = 0.0676", "result": "992.74 ± 0.2", "unit": "kg/m3"}, {"measurement": "mass density", "setting": "313.15 K, m1 = 0.0864", "result": "992.85 ± 0.2", "unit": "kg/m3"}, {"measurement": "mass density", "setting": "313.15 K, m1 = 0.1214", "result": "993.1 ± 0.2", "unit": "kg/m3"}, {"measurement": "mass density", "setting": "313.15 K, m1 = 0.1524", "result": "993.28 ± 0.2", "unit": "kg/m3"}, {"measurement": "mass density", "setting": "313.15 K, m1 = 0.1766", "result": "993.41 ± 0.2", "unit": "kg/m3"}, {"measurement": "mass density", "setting": "313.15 K, m1 = 0.2009", "result": "993.58 ± 0.2", "unit": "kg/m3"}, {"measurement": "mass density", "setting": "313.15 K, m1 = 0.2264", "result": "993.72 ± 0.2", "unit": "kg/m3"}, {"measurement": "mass density", "setting": "313.15 K, m1 = 0.2609", "result": "993.92 ± 0.2", "unit": "kg/m3"}, {"measurement": "mass density", "setting": "318.15 K, m1 = 0.0476", "result": "990.6 ± 0.2", "unit": "kg/m3"}, {"measurement": "mass density", "setting": "318.15 K, m1 = 0.0676", "result": "990.72 ± 0.2", "unit": "kg/m3"}, {"measurement": "mass density", "setting": "318.15 K, m1 = 0.0864", "result": "990.83 ± 0.2", "unit": "kg/m3"}, {"measurement": "mass density", "setting": "318.15 K, m1 = 0.1214", "result": "991.07 ± 0.2", "unit": "kg/m3"}, {"measurement": "mass density", "setting": "318.15 K, m1 = 0.1524", "result": "991.25 ± 0.2", "unit": "kg/m3"}, {"measurement": "mass density", "setting": "318.15 K, m1 = 0.1766", "result": "991.37 ± 0.2", "unit": "kg/m3"}, {"measurement": "mass density", "setting": "318.15 K, m1 = 0.2009", "result": "991.53 ± 0.2", "unit": "kg/m3"}, {"measurement": "mass density", "setting": "318.15 K, m1 = 0.2264", "result": "991.66 ± 0.2", "unit": "kg/m3"}, {"measurement": "mass density", "setting": "318.15 K, m1 = 0.2609", "result": "991.86 ± 0.2", "unit": "kg/m3"}]}]}
